Results from patent US20180015075A1, “METHODS AND COMPOSITIONS FOR TREATMENT OF VENOUS MALFORMATION” (Children's Hospital Medical Center, priority 2016, published 2018).
Read-outs that look alike come from different tables or passages of the source.

Tests used:
[1] = tested on: Pik3ca^H1047R VM lesions; conditions: mouse, in vivo; cited from earlier work
[2] = tested on: HUVEC-TIE2-L914F-GFP vascular channels; assay: Fibrin gel bead assay; assay type: cell-based, human
Description: Assay was performed as described(34). Briefly, coated the beads with HUVEC-GFP or HUVEC-TIE2-L914F-GFP cells (2500 beads with 1×10^6 cells) and mixed coated beads in fibrinogen solution at a concentration of ˜500 beads/ml. Then 0.625 Units/mL of thrombin and 0.5 ml beads/fibrinogen suspension were added per well in 24-well plate successively. After dotting in the 37° C.-incubator, added 1 ml EGM-2 medium and 20,000 fibroblasts per well on the top. Then beads treated by adding DMSO, Ponatinib, rapamycin or combination in the medium

Cc1nc(NC(=O)N2CCC[C@H]2C(N)=O)sc1-c1ccnc(C(C)(C)C(F)(F)F)c1 [BYL719]
VM lesion growth [1]: strongly inhibited VM lesion growth
cell apoptosis (cleaved caspase-3 positive cells) [1]: increased the number of cleaved caspase-3 positive cells

CO[C@H]1C[C@@H]2CC[C@@H](C)[C@@](O)(O2)C(=O)C(=O)N2CCCC[C@H]2C(=O)O[C@H]([C@H](C)C[C@@H]2CC[C@@H](OCCO)[C@H](OC)C2)CC(=O)[C@H](C)/C=C(\C)[C@@H](O)[C@@H](OC)C(=O)[C@H](C)C[C@H](C)/C=C/C=C/C=C/1C [Everolimus, 42-O-(2-Hydroxyethyl)-rapamycin]
VM lesion growth [1]: prevented lesion growth
cell apoptosis (cleaved caspase-3 positive cells) [1]: did not induce cell apoptosis

CO[C@H]1C[C@@H]2CC[C@@H](C)[C@@](O)(O2)C(=O)C(=O)N2CCCC[C@H]2C(=O)O[C@H]([C@H](C)C[C@@H]2CC[C@@H](O)[C@H](OC)C2)CC(=O)[C@H](C)/C=C(\C)[C@@H](O)[C@@H](OC)C(=O)[C@H](C)C[C@H](C)/C=C/C=C/C=C/1C [Sirolimus, Rapamycin]
vascular/tube area expansion from day 8 to 14 ([2]; 100 nM Ponatinib or 10 nM rapamycin added from day 8, vehicle 54.50±3.81%): 20.25±3.23%

Cc1ccc(C(=O)Nc2ccc(CN3CCN(C)CC3)c(C(F)(F)F)c2)cc1C#Cc1cnc2cccnn12 [Ponatinib, 3-(2-imidazo[1,2-b]pyridazin-3-ylethynyl)-4-methyl-N-[4-[(4-methyl-1-piperazinyl)methyl]-3-(trifluoromethyl)phenyl]-benzamide]
tube formation (tube area at day 11) [2]: almost completely inhibited tube formation
vascular/tube area expansion from day 8 to 14 [2]: 14.79±4.53%
